Source: the NIST ThermoML archive (doi:10.1021/acs.jced.8b01146)
Numbers after ± are expanded uncertainties.

Conditions: 100 kPa, Liquid, Vibrating tube method

SMILES | mass density (288.15 K) [kg/m3] | mass density (293.15 K) [kg/m3] | mass density (298.15 K) [kg/m3] | mass density (303.15 K) [kg/m3] | mass density (308.15 K) [kg/m3] | mass density (313.15 K) [kg/m3] | mass density (318.15 K) [kg/m3] | mass density (323.15 K) [kg/m3]
CC1CCCC(=O)O1 (stereo not given) [2H-pyran-2-one, tetrahydro-6-methyl-] | 1053.81 ± 0.51 | 1049.47 ± 0.51 | 1045.14 ± 0.51 | 1040.81 ± 0.51 | 1036.48 ± 0.51 | 1032.15 ± 0.51 | 1027.82 ± 0.51 | 1023.51 ± 0.51
O=C1CCCO1 [γ-butyrolactone] | 1134.26 ± 0.51 | 1129.35 ± 0.51 | 1124.44 ± 0.51 | 1119.53 ± 0.51 | 1114.61 ± 0.51 | 1109.69 ± 0.51 | 1104.77 ± 0.51 | 1099.86 ± 0.51
CC1=CCC(=O)O1 [5-methylfuran-2(3H)-one] | 1099.32 ± 0.7 | 1093.94 ± 0.7 | 1088.55 ± 0.69 | 1083.16 ± 0.69 | 1077.77 ± 0.69 | 1072.38 ± 0.68 | 1066.98 ± 0.68 | 1061.58 ± 0.67
CCC1CCC(=O)O1 (stereo not given) [2(3H)-furanone, 5-ethyldihydro-] | 1029.16 ± 0.54 | 1024.74 ± 0.54 | 1020.33 ± 0.53 | 1015.91 ± 0.53 | 1011.49 ± 0.53 | 1007.07 ± 0.53 | 1002.65 ± 0.53 | 998.229 ± 0.53
CC1CCC(=O)O1 (stereo not given) [γ-valerolactone] | 1058.51 ± 0.51 | 1053.81 ± 0.51 | 1049.1 ± 0.51 | 1044.4 ± 0.51 | 1039.69 ± 0.51 | 1034.98 ± 0.51 | 1030.27 ± 0.51 | 1025.56 ± 0.51
